Experimental findings from patent US20250320224A1 (DOMAIN THERAPEUTICS, priority 2022, published 2025) are described below.

This experiment concerns the target T1, human PAR-2 (hPAR-2) receptor (Homo sapiens, UniProt P55085).
T1 construct: expressed in HEK-293 cells in an endogenous manner; endogenous in cells; host or cells: HEK-293
T1 sequence (P55085 26-397): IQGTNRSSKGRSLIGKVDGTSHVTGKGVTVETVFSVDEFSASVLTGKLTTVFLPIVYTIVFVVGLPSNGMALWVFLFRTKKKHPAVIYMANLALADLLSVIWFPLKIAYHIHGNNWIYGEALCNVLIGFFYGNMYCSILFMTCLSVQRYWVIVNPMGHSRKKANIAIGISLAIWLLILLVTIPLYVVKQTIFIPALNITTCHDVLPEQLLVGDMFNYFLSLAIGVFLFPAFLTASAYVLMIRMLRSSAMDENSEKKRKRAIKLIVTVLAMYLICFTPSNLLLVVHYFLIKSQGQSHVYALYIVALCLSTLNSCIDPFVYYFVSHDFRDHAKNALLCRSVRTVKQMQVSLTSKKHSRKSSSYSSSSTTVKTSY
The experiment can be described thus: In vitro human PAR-2 functional antagonist activity using calcium assays. The format is cell-based. To be noted: hPAR-2 endogenously expressed in HEK-293 cells; stimulated by 2-Furoyl-LIGRLO-NH2 peptide; Fluo4AM intracellular calcium, FLIPR Tetra. In outline: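 HEK-293 cells with endogenous hPAR-2 were loaded with Fluo4AM and read for intracellular Ca2+ on FLIPR. After 10 min with compound alone, cells were stimulated with 2-Furoyl-LIGRLO-NH2 at the concentration giving 80% of maximal response. Inhibition was then recorded over 5 min relative to buffer and agonist-only signals.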
A general note: Calcium assays in cells follow changes in intracellular calcium, usually with a dye or a luminescent sensor.

Structures can show the parent of a compound that is named as a salt. Where only a bound is given, the exact number is not on record here.

Turning to `Cc1cc(N2CCN(C(=O)c3ccc4c(n3)C3(C=C(F)C3)CN4c3ccc(Cl)c(F)c3)C(C)(C)C2)nc(C)c1C(=O)O` (stereo not drawn) [Example 90, 6-(4-(1′-(4-chloro-3-fluorophenyl)-3-fluoro-1′,2′-dihydrospiro[cyclobutane-1,3′-pyrrolo[3,2-b]pyridin]-2-en-5′-carbonyl)-3,3-dimethylpiperazin-1-yl)-2,4-dimethylnicotinic acid], the IC50 (commonly the concentration that inhibits the measured activity by half) is under 500 nM.

Consider `CC1(C)CN(c2ccc(Cl)c(F)c2)c2ccc(C(=O)N3CCN(c4cc(CC(=O)O)ccn4)CC3(C)C)nc21` [Example 115, 2-(2-(4-(1-(4-chloro-3-fluorophenyl)-3,3-dimethyl-2,3-dihydro-1H-pyrrolo[3,2-b]pyridine-5-carbonyl)-3,3-dimethylpiperazin-1-yl)pyridin-4-yl)acetic acid], for which the IC50 is under 500 nM. Then `Cc1ccc(N2CC(C)(C)c3nc(C(=O)N4CCN(c5cc(C)c(C(=O)O)c(C)n5)CC4(C)C)cnc32)cc1F` [Example 185, 6-(4-(5-(3-fluoro-4-methylphenyl)-7,7-dimethyl-6,7-dihydro-5H-pyrrolo[2,3-b]pyrazine-2-carbonyl)-3,3-dimethylpiperazin-1-yl)-2,4-dimethylnicotinic acid], with under 500 nM; and `CC1(C)C(=O)NCCN1C(=O)c1ccc2c(n1)C1(CCCC1)CN2c1ccccc1Cl` [Example 10, 4-(1′-(2-chlorophenyl)-1′,2′-dihydrospiro[cyclopentane-1,3′-pyrrolo[3,2-b]pyridine]-5′-carbonyl)-3,3-dimethylpiperazin-2-one], with 500 to 10000 nM. The same measure for `CC1(C)CN(c2ccc(CC(=O)O)cn2)CCN1C(=O)c1cc2n(n1)C(C)(C)CCN2c1ccc(Cl)c(F)c1` [Example 179, 2-(6-(4-(4-(4-chloro-3-fluorophenyl)-7,7-dimethyl-4,5,6,7-tetrahydropyrazolo[1,5-a]pyrimidine-2-carbonyl)-3,3-dimethylpiperazin-1-yl)pyridin-3-yl)acetic acid]: over 10000 nM; for `CC1(C)C(=O)NCCN1C(=O)c1ccc2c(n1)C1(CCOCC1)CN2c1ccc(Cl)c(F)c1` [Example 55, 4-(1′-(4-chloro-3-fluorophenyl)-1′,2,2′,3,5,6-hexahydrospiro[pyran-4,3′-pyrrolo[3,2-b]pyridine]-5′-carbonyl)-3,3-dimethylpiperazin-2-one]: under 500 nM; for `CC1(C)CN(c2ccc(Cl)c(F)c2)Cc2cn(C(=O)N3CCN(c4ccc(CC(=O)O)cn4)CC3(C)C)nc21` [Example 273, 2-(6-(4-(5-(4-chloro-3-fluorophenyl)-7,7-dimethyl-4,5,6,7-tetrahydro-2H-pyrazolo[4,3-c]pyridine-2-carbonyl)-3,3-dimethylpiperazin-1-yl)pyridin-3-yl)acetic acid]: 500 to 10000 nM. Then `Cc1nc(N2CCN(C(=O)c3ccc4c(n3)C(C)(C)CN4c3ccc(Cl)c(F)c3)C(C)(C)C2)sc1CC(=O)O` [Example 71, 2-(2-(4-(1-(4-chloro-3-fluorophenyl)-3,3-dimethyl-2,3-dihydro-1H-pyrrolo[3,2-b]pyridine-5-carbonyl)-3,3-dimethylpiperazin-1-yl)-4-methylthiazol-5-yl)acetic acid], with under 500 nM; and `CC1(C)CN(C2CCCC2)c2ccc(C(=O)N3CCN(c4ccc(CC(=O)O)cn4)CC3(C)C)nc21` [Example 167, 2-(6-(4-(1-cyclopentyl-3,3-dimethyl-2,3-dihydro-1H-pyrrolo[3,2-b]pyridine-5-carbonyl)-3,3-dimethylpiperazin-1-yl)pyridin-3-yl)acetic acid], with 500 to 10000 nM. As to `CC1(C)CN(c2ccc(Cl)c(F)c2)c2ccc(C(=O)N3CCNCC3(C)C)nc21` [Example 22, (1-(4-chloro-3-fluorophenyl)-3,3-dimethyl-2,3-dihydro-1H-pyrrolo[3,2-b]pyridin-5-yl)(2,2-dimethylpiperazin-1-yl)methanone hydrochloride], the IC50 was 500 to 10000 nM. The same measure for `COC1CC2(C1)CN(c1ccc(Cl)c(F)c1)c1ccc(C(=O)N3CCN(c4cc(C)c(C(=O)O)c(C)n4)CC3(C)C)nc12` (single isomer, unassigned) [Example 199, 6-(4-(1′-(4-chloro-3-fluorophenyl)-3-methoxy-1′,2′-dihydrospiro[cyclobutane-1,3′-pyrrolo[3,2-b]pyridine]-5′-carbonyl)-3,3-dimethylpiperazin-1-yl)-2,4-dimethylnicotinic acid]: under 500 nM. Then `CC1(C)CN(c2ccc(Cl)c(F)c2)c2ccc(C(=O)N3CCOCC3(C)C)nc21` [Example 20, (1-(4-chloro-3-fluorophenyl)-3,3-dimethyl-2,3-dihydro-1H-pyrrolo[3,2-b]pyridin-5-yl)(3,3-dimethylmorpholino)methanone], with under 500 nM; and `CC(C)(CO)NC(=O)c1ccc2c(n1)C(C)(C)CN2c1ccc(Cl)c(F)c1` [Example 51, 1-(4-chloro-3-fluorophenyl)-N-(1-hydroxy-2-methylpropan-2-yl)-3,3-dimethyl-2,3-dihydro-1H-pyrrolo[3,2-b]pyridine-5-carboxamide], with 500 to 10000 nM. The same measure for `O=C(O)CC1CCN(C(=O)c2ccc3c(n2)C2(CCC2)CN3c2ccc(Cl)c(F)c2)CC1` [Example 125, 2-(1-(1′-(4-chloro-3-fluorophenyl)-1′,2′-dihydrospiro[cyclobutane-1,3′-pyrrolo[3,2-b]pyridine]-5′-carbonyl)piperidin-4-yl)acetic acid]: 500 to 10000 nM; for `CC(C)CN1CC(C)(c2ccc(Cl)c(F)c2)c2ccc(C(=O)N3CCN(c4ccc(CC(=O)O)cn4)CC3(C)C)nc21` (stereo not drawn) [Example 257, 2-(6-(4-(3-(4-chloro-3-fluorophenyl)-1-isobutyl-3-methyl-2,3-dihydro-1H-pyrrolo[2,3-b]pyridine-6-carbonyl)-3,3-dimethylpiperazin-1-yl)pyridin-3-yl)acetic acid]: 500 to 10000 nM. As to `CC1(C)CN(c2ccc(Cl)c(F)c2)c2ccc(C(=O)N3CCN(c4ccc(CC(=O)O)nc4)CC3(C)C)nc21` [Example 117, 2-(5-(4-(1-(4-chloro-3-fluorophenyl)-3,3-dimethyl-2,3-dihydro-1H-pyrrolo[3,2-b]pyridine-5-carbonyl)-3,3-dimethylpiperazin-1-yl)pyridin-2-yl)acetic acid], the IC50 is under 500 nM.

With `Cc1cc(N2CCN(C(=O)c3cnc4c(n3)C3(CCC3)CN4c3ccc(Cl)c(F)c3)C(C)(C)C2)nc(C)c1C(=O)O` [Example 237, 6-(4-(5′-(4-chloro-3-fluorophenyl)-5′,6′-dihydrospiro[cyclobutane-1,7′-pyrrolo[2,3-b]pyrazine]-2′-carbonyl)-3,3-dimethylpiperazin-1-yl)-2,4-dimethylnicotinic acid], the IC50 is under 500 nM. The same measure for `CC1(C)CN(c2ccc(Cl)c(F)c2)c2ccc(C(=O)N3CCC4(CC3)CNC(=O)O4)nc21` [Example 121, 8-(1-(4-chloro-3-fluorophenyl)-3,3-dimethyl-2,3-dihydro-1H-pyrrolo[3,2-b]pyridine-5-carbonyl)-1-oxa-3,8-diazaspiro[4.5]decan-2-one]: 500 to 10000 nM; for `CC1(C)CN(c2ccc(Cl)c(F)c2)c2ccc(C(=O)N3CCN(c4ccc(C(C)(C)C(=O)O)cn4)CC3(C)C)nc21` [Example 175, 2-(6-(4-(1-(4-chloro-3-fluorophenyl)-3,3-dimethyl-2,3-dihydro-1H-pyrrolo[3,2-b]pyridine-5-carbonyl)-3,3-dimethylpiperazin-1-yl)pyridin-3-yl)-2-methylpropanoic acid]: under 500 nM.

With `CC1(C)CN(c2ccc(Cl)c(F)c2)c2ccc(C(=O)N3CCN(c4nc(C(=O)N5CCOCC5)cs4)CC3(C)C)nc21` [Example 82, (1-(4-chloro-3-fluorophenyl)-3,3-dimethyl-2,3-dihydro-1H-pyrrolo[3,2-b]pyridin-5-yl)(2,2-dimethyl-4-(4-(morpholine-4-carbonyl)thiazol-2-yl)piperazin-1-yl)methanone], the IC50 was under 500 nM. The same measure for `O=C1NC(=O)C2(CCN(C(=O)c3ccc4c(n3)C3(CCCC3)CN4c3ccc(Cl)c(F)c3)CC2)N1` [Example 4, 8-(1′-(4-chloro-3-fluorophenyl)-1′,2′-dihydrospiro[cyclopentane-1,3′-pyrrolo[3,2-b]pyridine]-5′-carbonyl)-1,3,8-triazaspiro[4.5]decane-2,4-dione]: under 500 nM; for `CC1(C)C(=O)NCCN1C(=O)c1ccc2c(n1)C1(CCCC1)CN2c1ccc(Cl)c(F)c1` [Example 3, 4-(1′-(4-chloro-3-fluorophenyl)-1′,2′-dihydrospiro[cyclopentane-1,3′-pyrrolo[3,2-b]pyridine]-5′-carbonyl)-3,3-dimethylpiperazin-2-one]: under 500 nM; for `Cc1sc(N2CCN(C(=O)c3ccc4c(n3)C(C)(C)CN4c3ccc(Cl)c(F)c3)C(C)(C)C2)nc1C(=O)O` [Example 73, 2-(4-(1-(4-chloro-3-fluorophenyl)-3,3-dimethyl-2,3-dihydro-1H-pyrrolo[3,2-b]pyridine-5-carbonyl)-3,3-dimethylpiperazin-1-yl)-5-methylthiazole-4-carboxylic acid hydrochloride]: under 500 nM.

For `CC1(C)CN(c2ccc(Cl)c(F)c2)c2ccc(C(=O)N3CCN(c4cnccc4C(=O)O)CC3(C)C)nc21` [Example 107, 3-(4-(1-(4-chloro-3-fluorophenyl)-3,3-dimethyl-2,3-dihydro-1H-pyrrolo[3,2-b]pyridine-5-carbonyl)-3,3-dimethylpiperazin-1-yl)isonicotinic acid], the IC50 was 500 to 10000 nM.
